Legend:
nanoFAST [1] = molecular target: T1, nanoFAST (Halorhodospira halophila, UniProt P16113, C69G/Y94W/T95M/F96I/D97P/Y98T/Q99S/M100R); experiment: solution NMR structure of the complex, […] intermolecular NOE distances; format: binding; details: cited from earlier work
T1 construct: gene pyp; nanoFAST: FAST lacking the first 26 residues (98 amino acids); engineered variant of PYP
T1 sequence (P16113 27-125 C69G/Y94W/T95M/F96I/D97P/Y98T/Q99S/M100R): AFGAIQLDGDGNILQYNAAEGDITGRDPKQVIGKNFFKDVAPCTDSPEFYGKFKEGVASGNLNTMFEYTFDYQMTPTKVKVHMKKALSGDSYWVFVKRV

nanoFAST [2] = molecular target: T1, nanoFAST; experiment: fluorescence titration; weak binding, seen only at […] protein
FAST = molecular target: T2, FAST (Halorhodospira halophila, UniProt P16113, C69G/D97P/F96I/M100R/Q99S/T95M/Y94W/Y98T); experiment: spectrofluorometric titration (Table S1); format: binding
T2 construct: gene pyp; full-length FAST (engineered variant of PYP)
T2 sequence (P16113 whole entry C69G/Y94W/T95M/F96I/D97P/Y98T/Q99S/M100R): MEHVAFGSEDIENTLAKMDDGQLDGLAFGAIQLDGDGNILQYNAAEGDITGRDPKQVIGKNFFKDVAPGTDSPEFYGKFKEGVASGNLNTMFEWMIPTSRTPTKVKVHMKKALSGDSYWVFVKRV

| SMILES | Kd (FAST) [nM] | other results |
| --- | --- | --- |
| COc1cc(/C=C2\SC(=S)NC2=O)c(OC)cc1O [HBR-DOM2] |  | Kd (nanoFAST [1]): 850 nM |
| COc1cc(O)ccc1/C=C1N=C(/C=C/c2ccncc2)N(C)C\1=O [N871b] |  | fluorescence titration; weak binding, seen only at ~100 μM protein (nanoFAST [2]): N871b is bright when bound to nanoFAST, but its binding affinity is extremely weak |
| COc1cc(/C=C2\N=C(C)N(C)C2=O)c(OC)cc1O [N1036] | 710 |  |
| COc1cc(/C=C2N=C(/C=C/c3ccncc3)N(C)C\2=O)c(OC)cc1O [N1048] | 150 |  |

Source: publication PMC9570328, “Spatial Structure of NanoFAST in the Apo State and in Complex with its Fluorogen HBR-DOM2” (International Journal of Molecular Sciences, 2022)
